Test [1] relates to conscious rats. The experiment in a line: Effect on cystometric parameters in conscious rats after oral administration. The format is in vivo, rat. To be noted: 3 mg/kg p.o., 1-5 h after treatment, versus vehicle. As to the method: Male Sprague-Dawley rats [Crl: CD° (SD) BR] of 300-400 g supplied by Charles River Italia were used. The animals were housed with free access to food and water and maintained on a forced 12-hour-light/12-hour-dark cycle at 22-24° C. of temperature, except during the experiment. To quantify urodynamic parameters in conscious rats, cystometrographic studies were performed according to the procedure previously reported (Guarneri et al., Pharmacol. Res. 24: 175, 1991).
Briefly, the rats were anaesthetised by intraperitoneal administration of 3 ml/kg of Equithensin solution (pentobarbital 30 mg/kg and chloral hydrate 125 mg/kg) and placed in a supine position. An approximately-10-mm-long midline incision was made in the shaved and cleaned abdominal wall. The urinary bladder was gently freed from adhering tissues, emptied and then cannulated via an incision in the bladder body, using a polyethylene cannula (0.58-mm internal diameter, 0.96-mm external diameter) which was permanently sutured with silk thread. The cannula was exteriorised through a subcutaneous tunnel in the retroscapular area, where it was connected to a plastic adapter in order to avoid the risk of removal by the animal. For drug testing, the rats were utilised one day after implantation.
On the day of the experiment, the rats were placed in modified Bollman cages, i.e. restraining cages that were large enough to permit the rats to adopt a normal crouched posture, but narrow enough to prevent turning around. […] The intraluminal-pressure signal during infusion of saline into the bladder was continuously recorded on a polygraph (Rectigraph-8K San-ei with BM614/2 amplifier from Biomedica Mangoni) and, from the cystometrogram, two urodynamic parameters were evaluated: bladder volume capacity (BVC) and micturition pressure (MP). […] Basal BVC and MP values were evaluated as mean of the values observed in the cystometrograms recorded in an initial period of 30-60 minutes. […] The bladder infusion restarted and changes in BVC and MP were evaluated from the mean values obtained in the cystometrograms observed during 1, 2, 3, 4 and 5 hours after treatment. […]
All data were expressed as mean±standard error. Time-course data were analysed by S.A.S./STAT software, version 6.12. The difference between vehicle and active-treatment effect was evaluated by: General Linear Model Procedure—Repeated Measures Analysis of Variance: Univariate test of Hypotheses for within Subject Effects—Analysis of Variance of Contrast Variables. […]

Test [2] deals with anaesthetised rats. The experiment in a line: Effects on rhythmic bladder-voiding contractions induced by bladder filling in anaesthetised rats. The format is in vivo, rat. The note with it: intravenous administration, urethane-anaesthetised rats. The procedure: Female Sprague-Dawley rats weighing 225-275 g (Crl: CDo Br, Charles River Italia) were used. The animals were housed with free access to food and water and maintained on a forced 12-hour alternating light-dark cycle at 22-24° C. for at least one week, except during the experiment. The activity on rhythmic bladder voiding contractions was evaluated according to the method of Dray (Dray J., Pharmacol. Methods, 13:157, 1985), with some modifications as in Guarneri (Guarneri, Pharmacol. Res. 27:173, 1993). Briefly, the rats were anaesthetised by subcutaneous injection of 1.25 g/kg (5 ml/kg) urethane, after which the urinary bladder was catheterised via the urethra using PE 50 polyethylene tubing filled with physiological saline. The catheter was tied in place with a ligature around the external urethral orifice and was connected to conventional pressure transducers (Statham P23 ID/P23 XL). […] The bladder was then filled via the recording catheter by incremental volumes of warm (37° C.) saline until reflex bladder-voiding contractions occurred (usually 0.8-1.5 ml). For intravenous injection of bioactive compounds, PE 50 polyethylene tubing filled with physiological saline was inserted into the jugular vein.
From the cystometrogram, the number of contractions recorded 15 minutes before (basal values) and after treatment, as well as the mean amplitude of these contractions (mean height of the peaks in mmHg), was evaluated.
Since most compounds produced an effect that was relatively rapid in onset and led to a complete cessation of bladder contractions, bioactivity was conveniently estimated by measuring the duration of bladder quiescence (i.e. the length of the time during which no contractions occurred). The number of tested animals showing a reduction in the number of contractions higher than 30% of that observed in the basal period was recorded too.
The extrapolated doses which induced a reduction in the number of contractions greater than 30% in 50% of the treated rats (ED50) were evaluated by the method of Bliss (Bliss C. I., Quart J. Pharm. Pharmacol. 11, 192-216, 1938).

The structures appear in SMILES notation.

Usually ED50 stands for the dose at which the effect has come halfway, by size or by number of responders. Regarding `O=C(C1CCCCC1)N1c2ccccc2CCC1CN1CCN(c2cccc3[nH]ccc23)CC1` (racemic) [Example 1, (±)1-(1-cyclohexanecarbonyl-1,2,3,4-tetrahydroquinoline-2-ylmethyl)-4-(4-indolyl)piperazine], in test [1], the “effect on bladder volume capacity (BVC)” value was “effective in increasing the bladder volume capacity” and the “effect on micturition pressure (MP)” value is listed as “without significant effects”. Besides, the ED50 in test [2] (Rattus norvegicus, read-out: ED50 frequency (extrapolated dose inducing a reduction of the number of contractions >30% in 50% of treated rats)) is 0.064 mg/kg. In test [2], the “ED10 min (extrapolated dose inducing 10 minutes of disappearance of the contractions)” value was 0.107 mg/kg.

The values above are taken from patent US20030162777A1, “Novel N-acylated heterocycles” (Recordati S.A., priority 2001, published 2003).
